Experimental data published in patent US20150299233A1, “COMPOSITIONS AND METHODS COMPRISING RHENIUM FOR THE TREATMENT OF CANCERS” (Massachusetts Institute of Technology, priority 2014, published 2015).
Like-named read-outs stand apart in the source and are kept apart here.

How the values were obtained:
Type in all cases: cell-based, human
A549 cells [1] = assay: MTT cytotoxicity assay, A549 cells
Experimental: (§1) In vitro toxicity of the rhenium (v) oxo complexes, 1 and 2 towards a panel of human cell lines was determined using the colorimetic MTT [[3-(4,5-dimethylithiazol-2-yl)-2,5-diphenyltetrazolium bromide] assay.
(§2) The in vitro effect of rhenium(V) oxo complexes 1 and 2 toward a panel of human cell lines was determined by the colorimetric MTT [3-(4,5-dimethylthiazol-2-yl)-2,5-diphenyltetrazolium bromide] assay. […] The IC50 values, or concentration required to induce 50% cell death, were derived from dose—response curves and are summarized in Table 1.
(§3) Cells (2×10^3 cells/well) were seeded in a 96-well plate. […] 1 and 2 were prepared as 10 mM solutions in DMSO and diluted using media. The final concentration of DMSO in each well was 0.5%, and this amount was also present in the untreated control. After 72 h, the medium was removed, 200 μL of a 0.4 mg/mL solution of MTT in DMEM, RPMI, or McCoy's 5A was added, and the plate was incubated for an additional 1-2 h. The DMEM/MTT, RPMI/MTT, or McCoy's 5A/MTT mixture was aspirated, and 200 μL of DMSO was added to dissolve the resulting purple formazan crystals. The absorbance of the solution wells was read at 550 nm. Absorbance values were normalized to DMSO-containing control wells and plotted as the concentration of test compound versus % cell viability. IC50 values were interpolated from the resulting dose-dependent curves. The reported IC50 values are the average from at least three independent experiments, each of which consisted of six replicates per concentration level.

A549 cells [2] = assay: Propidium iodide uptake, flow cytometry; settings: for PI uptake versus untreated control cells: 20 μM for 12 h; for effect of N-acetylcysteine pretreatment on induced PI uptake: N-acetylcysteine 3 mM for 1 h; for effect of necrostatin-1 on mediated PI uptake: necrostatin-1 60 μM
Experimental: Intracellular ROS production and mitochondrial membrane depletion contribute to necroptosis. Cells undergoing necroptosis display necrosis-like morphological features such as loss of cell membrane integrity, increase in organelle and cell volume (oncosis), and intact nuclear membrane. To further test whether 1- and 2-treatment can trigger necroptosis, Hoechst 33258/propidium iodide (PI) double staining was carried out to determine nuclear membrane morphology and integrity. Hoechst 33258 is a DNA minor groove binder that is routinely used to visualize the nucleus without the need for cell permeabilization. When used without cell permeabilization agents, PI stains the nuclei of necrotic cells. Early-stage apoptotic and normal cells maintain cell membrane integrity and thus are not stained by PI. A549 cells were treated with 1 and 2 (20 μM for 12 h), incubated with Hoechst 33258 and PI, and imaged using a fluorescence microscope.
Propidium Iodide Uptake. Untreated and treated A549 cells (1.5×10^6 cells/well) grown in six-well plates were washed with PBS (1 mL×3), harvested, incubated with PI (5 μM), and analyzed by using the FACSCalibur-HTS flow cytometer (BD Biosciences) (20 000 events per sample were acquired). The FL2 channel was used to assess intracellular PI uptake. Cell populations were analyzed using the FlowJo software (Tree Star).

confluent A549 cells = assay: MTT cytotoxicity assay, confluent A549 cells; settings: for IC50: Table 2, confluent cells, 72 h exposure, read-out: IC50 A549 (confluent) lung carcinoma; for IC50 higher in confluent A549 cells than in A549 cells in log phase growth: confluent versus log phase
A549 cells [3] = assay: JC-1 mitochondrial membrane potential assay; settings: for JC-1 green fluorescence versus untreated cells (mitochondrial membrane disruption): 1, 2, shikonin 20 μM for 12 h, CCCP 5 μM for 12 h
Experimental: The effect of 1 and 2 on the mitochondrial membrane potential was assessed by flow cytometry, using the JC-1 assay (5,5′,6,6′-tetrachloro-1,1′,3,3′-tetraethylbenzimidazolyl carbo-cyanine iodide). JC-1 is a cationic lipophilic dye that localizes in the mitochondria of healthy cells as red-emitting aggregates. If the mitochondrial membrane potential is disrupted, JC-1 forms green-emitting monomers. […] This could explain the high residual toxicity (>1 μM) observed for A549 cells co-incubated with the rhenium complexes (1 and 2) and necrostatin-1 (FIG. 1B).
JC-1 Assay. The JC-1 Mitochondrial Membrane Potential Assay Kit (Cayman) was used. The manufacturer's protocol was followed to carry out this experiment. Briefly, to untreated and treated A549 cells (1.5×10^6 cells/well) grown in six-well plates was added the JC-1 staining solution (100 μL/mL of cell media). The cells were incubated for 30 min, harvested, and analyzed by using the FACSCalibur-HTS flow cytometer (BD Biosciences) (20 000 events per sample were acquired).The FL1 channel was used to assess mitochondrial depolarization. Cell populations were analyzed using the FlowJo software (Tree Star).

MRC-5 = assay: MTT cytotoxicity assay, MRC-5 normal lung fibroblasts; settings: for selectivity over normal fibroblast cells (IC50 higher in normal fibroblasts than in cancer cells): cancer cells versus normal fibroblast cells
Experimental: as §1, §2, §3

HT-29 = assay: Cytotoxicity in the presence of necrostatin-1, HT-29 cells; settings: necrostatin-1 60 μM, t test p<0.05
Experimental: In order to determine the cell-killing mechanism of 1 and 2, cytotoxicity studies in the presence of apoptosis and necrosis inhibitors were conducted. […] The possibility that 1 and 2 induce necroptosis was then investigated. Necroptosis is a well-regulated mode of cell death that is different from unregulated necrosis and apoptosis. Unlike unregulated necrosis, which can be induced by H2O2 or heat, necroptosis generally involved the interaction of protein kinases, RIP1 and RIP3, to initiate cell disintegration. This process can be blocked by necrostatin-1, a potent RIP1 kinase inhibitor. To determine whether 1 and 2 induced necroptosis and/or uncontrolled necrosis, cytotoxicity studies were conducted in the presence of necrostatin-1 (60 μM) and IM-54 (10 μM), an inhibitor of H2O2-induced necrosis. […] Therefore, 1- and 2-induced cell death relies on RIP1-RIP3 complex formation and not on the expression levels of the individual protein kinases. RIP1 can also form a cytosolic complex with Fas-associated death domain (FADD) and caspase 8, known as a ripoptosome, to initiate apoptosis (through caspase 8 cleavage).
Cytotoxicity MTT Assay. […] Cells (2×10^3 cells/well) were seeded in a 96-well plate. […] The absorbance of the solution wells was read at 550 nm. Absorbance values were normalized to DMSO-containing control wells and plotted as the concentration of test compound versus % cell viability. […]

[4] = test system: PC-3 (prostate adenocarcinoma); assay: MTT cytotoxicity assay, PC-3 cells; settings: Table 2; cisplatin-resistant cell line; 72 h exposure
[5] = Table 1, 72 h exposure, ± standard deviation, read-out: IC50 A549 lung carcinoma
[6] = Table A, average of three independent determinations, read-out: IC50 A549 (lung)
[7] = Table 1, 72 h exposure, ± standard deviation, read-out: IC50 MRC-5 lung fibroblast
[8] = Table A, average of three independent determinations, read-out: IC50 MRC5 (lung normal)

`C[O][Re-2]1(=[O])([Cl])([Cl])[n+]2cc(C)c(C)c3ccc4c(C)c(C)c[n+]1c4c32` [Compound 2, [ReO(OMe)(3,4,7,8-tetramethyl-1,10-phenanthroline)Cl2]] was tested. Which IC50 (A549 cells [1]; [5]) did it give?
The IC50 was 157 ± 15 nM.

What about the IC50 (A549 cells [1]; [6]) of the same molecule?
The IC50 was 73 ± 3 nM.

And the “PI uptake versus untreated control cells” value (A549 cells [2])?
Its value is “higher PI uptake”.

What about the “effect of N-acetylcysteine pretreatment on induced PI uptake” value (A549 cells [2]) of the same molecule?
Its value is “significantly decreased”.

What about the “effect of necrostatin-1 on mediated PI uptake” value (A549 cells [2]) of the same molecule?
The value was “could block”.

And the IC50 (confluent A549 cells)?
The IC50 was 5240 ± 1990 nM.

And the “IC50 higher in confluent A549 cells than in A549 cells in log phase growth” value (confluent A549 cells)?
Its value is 40 fold.

What about the “induced mitochondrial membrane depletion with necrostatin-1” value (A549 cells [3]) of the same molecule?
The value was “amplified”.

What about the “JC-1 green fluorescence versus untreated cells (mitochondrial membrane disruption)” value (A549 cells [3]) of the same molecule?
The value was “increased green fluorescence”.

What about the IC50 (MRC-5; [7]) of the same molecule?
The IC50 was 709 ± 76 nM.

And the IC50 (MRC-5; [8])?
Its IC50 is 709 ± 76 nM.

What about the “selectivity over normal fibroblast cells (IC50 higher in normal fibroblasts than in cancer cells)” value (MRC-5) of the same molecule?
Its value is “about 10 fold”.

What about the “effect of co-incubation with necrostatin-1 on toxicity, HT-29” value (HT-29) of the same molecule?
The value was “markedly decreased the toxicity”.

And the IC50 [4]?
Its IC50 is 780 ± 10 nM.

`C[O][Re](=[O])([Cl])[Cl].c1ccc(-c2ccnc3c2ccc2c(-c4ccccc4)ccnc23)cc1` [Compound 1, [ReO(OMe)(4,7-diphenyl-1,10-phenanthroline)-Cl2]] was tested. Which IC50 (A549 cells [1]; [5]) did it give?
Its IC50 is 207 ± 4 nM.

And the IC50 (A549 cells [1]; [6])?
The IC50 was 207 ± 4 nM.

And the “higher toxicity for lung carcinoma A549 cells than cisplatin” value (A549 cells [1]; ratio to cisplatin, Example 1)?
Its value is 37 fold.

And the “PI uptake versus untreated control cells” value (A549 cells [2])?
The value was “higher PI uptake”.

What about the “effect of N-acetylcysteine pretreatment on induced PI uptake” value (A549 cells [2]) of the same molecule?
The value was “significantly decreased”.

What about the “effect of necrostatin-1 on mediated PI uptake” value (A549 cells [2]) of the same molecule?
The value was “could block”.

What about the IC50 (confluent A549 cells) of the same molecule?
Its IC50 is 8610 ± 749 nM.

And the “IC50 higher in confluent A549 cells than in A549 cells in log phase growth” value (confluent A549 cells)?
The value was 40 fold.

What about the “induced mitochondrial membrane depletion with necrostatin-1” value (A549 cells [3]) of the same molecule?
Its value is “amplified”.

And the “JC-1 green fluorescence versus untreated cells (mitochondrial membrane disruption)” value (A549 cells [3])?
Its value is “increased green fluorescence”.

And the IC50 (MRC-5; [7])?
Its IC50 is 1350 ± 228 nM.

And the IC50 (MRC-5; [8])?
Its IC50 is 1350 ± 228 nM.

And the “selectivity over normal fibroblast cells (IC50 higher in normal fibroblasts than in cancer cells)” value (MRC-5)?
The value was “about 10 fold”.

And the “effect of co-incubation with necrostatin-1 on toxicity, HT-29” value (HT-29)?
Its value is “markedly decreased the toxicity”.

And the IC50 [4]?
The IC50 was 270 ± 14 nM.
